The values that follow come from US20170072012A1, “USE OF GSMTX4 TO REDUCE ISCHEMIA REPERFUSION INJURY” (priority 2014, published 2017).

This test deals with ischemic reperfusion injury in mouse heart. Kind of test: In vivo pressure-volume relationships after I/R (left ventricular catheterization). As to conditions: 50 mg/kg IP pretreatment, 24 h reperfusion. More on the design: species or system C57B1/6J mice. As for the experimental part:
In order to determine hemodynamic differences, we measured the pressure-volume (P-V) relationships in real time in 3 groups of mice, including a sham group that was exposed to the open heart operation but not FR, and the two I/R (20min ischemia/24h reperfusion) induced groups pretreated with either vehicle or GsMTx4-D. To measure the P-V relationships, mice were anesthetized with 4% isoflurane and 100% O2, quickly intubated and ventilated with a respirator. […] The rib cage was slightly retracted and the diaphragm was gently cut away to attain an apical view of the myocardium. A 27-gauge needle was inserted into the apex of the LV free wall to create a guide-hole. A 1.2-French microtransducer pressure-volume impedance catheter (Scisense, London, ON, CA) was then inserted into the lumen of LV to assess real-time LV function. Hemodynamic parameters such as heart rate, cardiac output, and ejection fraction were measured and calculated with the iWorx software (Dover, N.H.). Each group included 5 (sham and GsMTx4-D) to 6 (vehicle) independent experiments.
To examine the effects of GsMTx4-D on hemodynamics, we compared the P-V relationships between the GsMTx4-D (50 mg/kg) and vehicle (saline 50 μL) in pretreated mice. After 20 min of ischemia followed by 24 h reperfusion, the left ventricle was catheterized to acquire real time P-V relationships (FIG. 3). […] In addition, GsMTx4-D produced improvements in both end systolic and diastolic volumes (FIG. 3 H and I) that led to a significant improvement in ejection fraction (61.7±3.4%, P<0.05) (FIG.3 G). Clearly, GsMTx4-D improves heart function after FR.

Where a SMILES comes first, the peptide text is derived from it. Bridges are numbered along the chain shown (N, C = ends). [ ]: non-standard residue; d: D form.

Take `CC(C)C[C@H]1NC(=O)[C@H](NC(=O)CN)CSSC[C@H]2NC(=O)[C@H]3CSSC[C@H](C(=O)N[C@H](CC(N)=O)C(=O)N[C@H](Cc4ccccc4)C(=O)N[C@H](CO)C(=O)N[C@H](Cc4ccccc4)C(N)=O)NC(=O)[C@@H](CC(C)C)NC(=O)[C@@H](CCCCN)NC(=O)[C@@H](Cc4ccccc4)NC(=O)[C@@H](CC(C)C)NC(=O)[C@@H](CCCCN)NC(=O)[C@@H](CO)NC(=O)[C@@H](CSSC[C@@H](NC(=O)[C@@H](CCCCN)NC(=O)[C@@H](Cc4c[nH]c5ccccc45)NC(=O)[C@@H](Cc4c[nH]c5ccccc45)NC(=O)[C@@H](Cc4ccccc4)NC(=O)[C@@H](CCC(=O)O)NC1=O)C(=O)N[C@H](CC(N)=O)C(=O)N1CCC[C@@H]1C(=O)N[C@H](CC(N)=O)C(=O)N[C@H](CC(=O)O)C(=O)N[C@H](CC(=O)O)C(=O)N[C@H](CCCCN)C(=O)N3)NC(=O)[C@@H](CCCCN)NC(=O)[C@@H](CC(C)C)NC(=O)[C@@H](CCCCN)NC(=O)[C@H]1CCCN1C(=O)[C@@H](CCCNC(=N)N)NC2=O` [GsMTx4-D] (H-G[dC][dL][dE][dF][dW][dW][dK][dC][dN][dP][dN][dD][dD][dK][dC][dC][dR][dP][dK][dL][dK][dC][dS][dK][dL][dF][dK][dL][dC][dN][dF][dS][dF]-NH2; disulfide 2-17, 9-23, 16-30 (inferred); N-terminus and C-terminus assumed): the stroke volume (vehicle 18.9±2.3, sham 26.7±1.9) came to 26.2 ± 1.9 µL. Where the note is “vehicle 44.4±4.9, sham 75.5±6.4”, the ejection fraction is recorded as 61.7±3.4%. The heart rate (vehicle 243.9±6.9, sham 304.0±23.6) is 298.7±14.3 bpm. For the same compound, under “vehicle 4636±602, sham 8039±690”, the cardiac output stood at 77580 ± 321 µL/min. Moreover, under “vs vehicle”, the “end systolic and diastolic volumes” value is “improvements”.
